Test results published in patent US20050246797A1, “Gene participating in the synthesis of brassinosteroid” (priority 2002, published 2005).
Where two headings read alike, the source gives them in different places.

Columns and labels:
[1] = Concentrations of brassinosteroids in Arabidopsis strains by HPLC and GC-MS
Protocol: The concentrations of brassinosteroids were determined in wild strains (Ws-2), the strain of reference example 1 (rot3-1 and rot3-5, suppressed function of ROT3) and the strain of reference example 3 (rot3/CYP90D1, suppressed function of ROT3 and CYP90D1) of Arabidoposis. The concentration was determined by harvesting the ground part of the plants at the time of rosette formation by reaping, by freezing and drying, and by detecting using HPLC and GC-MS.

[2] = tested on: strains of suppressed function of both ROT3 and CYP90D1; assay: Treatment of plants/leaves of the ROT3- and CYP90D1-suppressed strain with brassinosteroid intermediates or brassinolide (leaf morphology, FIG. 3); assay type: in vivo, Arabidopsis; conditions: aqueous solution 0.1 μM, submersion with gentle shaking
Protocol: The strain with suppressed function of both ROT3 and CYP90D1 prepared in reference example 2 was cultured from seeds in sterilized conditions. The seeds of the above-described strain were seeded on the MS medium (solidified by 0.2% Gelrite) supplemented with 2% (w/v) sucrose and were conventionally cultured at 23° C. under continuous illumination after seeding under sterilized conditions.
The above-described plants (strains of suppressed function of both ROT3 and CYP90D1) were cultured in the above-described aqueous solution at the level of submersion under the solution with gently shaking. In the case of the treatment of leaves with the above-described intermediates or brassionolide, leafstalks were cut out by a surgical knife after taking out the plants under sterilized conditions and were treated in the same way. […] Namely, ROT3 and CYP90D1 are cooperatively involved in the synthesis of brassinolide, the final product of the biosynthetic pathway of brassinosteriods.

[3] = rot3/CYP90D1 (suppressed function of ROT3 and CYP90D1), ground part of plants at rosette formation

Compound | concentration of brassinosteroid, rot3/CYP90D1 [1, 3] | concentration of brassinosteroid, rot3/CYP90D1 [1] [ng/g] | effect on leaf size/morphology of plants without the function of ROT3 and CYP90D1 [2] | amount in the strain with suppressed function of both ROT3 and CYP90D1 ([1]; rot3/CYP90D1, in words)
CC(C)[C@H](C)[C@@H](O)[C@H](O)[C@@H](C)[C@H]1CC[C@H]2[C@@H]3CC[C@H]4C[C@H](O)CC[C@]4(C)[C@H]3CC[C@]12C [3-Deoxotyphasterol] | 0.38 ng/g | – | – | –
CC(C)[C@H](C)[C@@H](O)[C@H](O)[C@@H](C)[C@H]1CC[C@H]2[C@@H]3CC[C@H]4C[C@H](O)[C@H](O)C[C@]4(C)[C@H]3CC[C@]12C [6-Deoxocastasterone] | – | 0.034 | – | –
CC(C)[C@H](C)[C@@H](O)[C@H](O)[C@@H](C)[C@H]1CC[C@H]2[C@@H]3CC[C@H]4C[C@@H](O)CC[C@]4(C)[C@H]3CC[C@]12C [6-Deoxoteasterone] | 0.26 ng/g | – | – | –
CC(C)[C@H](C)[C@@H](O)[C@H](O)[C@@H](C)C1CCC2C3OC(=O)[C@H]4C[C@H](O)[C@H](O)C[C@]4(C)C3CC[C@@]21C (stereo partly shown) [Brassinolide] | — (— in the table shows that the value is less than the limit of detection (0.001 ng/g)) | – | induced large size of leaves | extremely decreased
CC(C)[C@H](C)[C@@H](O)[C@H](O)[C@@H](C)[C@H]1CC[C@H]2[C@@H]3CC(=O)[C@H]4C[C@H](O)[C@H](O)C[C@]4(C)[C@H]3CC[C@]12C [Castasterone] | 0.020 ng/g | – | – | –
